Data: patent US6350879B1, “Benziso-N (L-histidine methylester)-thiazolone, process for the preparation thereof, and use thereof for RNA polymerase inhibition” (Council of Scientific and Industrial Research, priority 2000, dated 2002)

What was measured:
E. coli RNA polymerase = E. coli RNA polymerase (Escherichia coli, UniProt P0A8T7); experiment: RNA polymerase inhibition, radioisotope (3H UTP) labelling transcription assay with calf thymus DNA; format: biochemical; conditions: 0.8 μM of 3 with 0.4 μM E. coli RNA polymerase, incubated 15 min, dialysed overnight; native enzyme count = 100%
Chain of E. coli RNA polymerase (P0A8T7 whole entry): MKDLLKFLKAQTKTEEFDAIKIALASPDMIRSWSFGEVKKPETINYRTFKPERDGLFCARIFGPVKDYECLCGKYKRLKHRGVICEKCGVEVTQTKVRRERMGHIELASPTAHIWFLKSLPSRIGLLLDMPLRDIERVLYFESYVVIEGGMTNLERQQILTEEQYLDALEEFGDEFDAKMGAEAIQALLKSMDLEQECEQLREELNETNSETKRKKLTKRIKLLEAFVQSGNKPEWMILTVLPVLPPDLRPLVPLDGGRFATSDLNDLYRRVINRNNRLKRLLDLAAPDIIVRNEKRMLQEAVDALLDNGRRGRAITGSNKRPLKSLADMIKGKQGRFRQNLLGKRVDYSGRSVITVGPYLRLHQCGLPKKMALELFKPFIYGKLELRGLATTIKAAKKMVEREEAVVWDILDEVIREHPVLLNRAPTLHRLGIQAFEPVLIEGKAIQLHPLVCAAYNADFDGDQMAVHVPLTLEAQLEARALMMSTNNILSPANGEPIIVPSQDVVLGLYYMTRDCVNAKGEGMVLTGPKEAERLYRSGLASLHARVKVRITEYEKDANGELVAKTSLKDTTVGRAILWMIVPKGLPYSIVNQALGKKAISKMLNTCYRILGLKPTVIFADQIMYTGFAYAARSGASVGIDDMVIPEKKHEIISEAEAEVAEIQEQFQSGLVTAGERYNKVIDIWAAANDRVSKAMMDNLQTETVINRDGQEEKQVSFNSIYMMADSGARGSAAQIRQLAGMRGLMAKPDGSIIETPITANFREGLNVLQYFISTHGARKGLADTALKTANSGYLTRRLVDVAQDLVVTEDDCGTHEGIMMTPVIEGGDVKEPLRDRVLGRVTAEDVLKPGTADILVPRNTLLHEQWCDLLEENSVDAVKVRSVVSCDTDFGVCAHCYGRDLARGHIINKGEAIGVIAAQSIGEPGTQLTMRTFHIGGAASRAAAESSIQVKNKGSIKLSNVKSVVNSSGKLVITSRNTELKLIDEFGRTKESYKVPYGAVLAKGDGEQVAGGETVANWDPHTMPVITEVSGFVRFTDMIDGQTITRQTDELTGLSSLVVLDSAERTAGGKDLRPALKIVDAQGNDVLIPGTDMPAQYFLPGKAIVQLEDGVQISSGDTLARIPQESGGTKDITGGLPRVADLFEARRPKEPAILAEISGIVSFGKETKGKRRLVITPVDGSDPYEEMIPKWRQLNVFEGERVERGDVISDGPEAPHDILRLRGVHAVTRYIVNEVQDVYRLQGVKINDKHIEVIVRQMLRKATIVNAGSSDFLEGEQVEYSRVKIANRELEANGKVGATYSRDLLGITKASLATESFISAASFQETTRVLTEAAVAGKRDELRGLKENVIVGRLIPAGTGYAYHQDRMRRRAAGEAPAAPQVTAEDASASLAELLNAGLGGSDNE
Chain of E. coli RNA polymerase (P0A8V2 whole entry partner): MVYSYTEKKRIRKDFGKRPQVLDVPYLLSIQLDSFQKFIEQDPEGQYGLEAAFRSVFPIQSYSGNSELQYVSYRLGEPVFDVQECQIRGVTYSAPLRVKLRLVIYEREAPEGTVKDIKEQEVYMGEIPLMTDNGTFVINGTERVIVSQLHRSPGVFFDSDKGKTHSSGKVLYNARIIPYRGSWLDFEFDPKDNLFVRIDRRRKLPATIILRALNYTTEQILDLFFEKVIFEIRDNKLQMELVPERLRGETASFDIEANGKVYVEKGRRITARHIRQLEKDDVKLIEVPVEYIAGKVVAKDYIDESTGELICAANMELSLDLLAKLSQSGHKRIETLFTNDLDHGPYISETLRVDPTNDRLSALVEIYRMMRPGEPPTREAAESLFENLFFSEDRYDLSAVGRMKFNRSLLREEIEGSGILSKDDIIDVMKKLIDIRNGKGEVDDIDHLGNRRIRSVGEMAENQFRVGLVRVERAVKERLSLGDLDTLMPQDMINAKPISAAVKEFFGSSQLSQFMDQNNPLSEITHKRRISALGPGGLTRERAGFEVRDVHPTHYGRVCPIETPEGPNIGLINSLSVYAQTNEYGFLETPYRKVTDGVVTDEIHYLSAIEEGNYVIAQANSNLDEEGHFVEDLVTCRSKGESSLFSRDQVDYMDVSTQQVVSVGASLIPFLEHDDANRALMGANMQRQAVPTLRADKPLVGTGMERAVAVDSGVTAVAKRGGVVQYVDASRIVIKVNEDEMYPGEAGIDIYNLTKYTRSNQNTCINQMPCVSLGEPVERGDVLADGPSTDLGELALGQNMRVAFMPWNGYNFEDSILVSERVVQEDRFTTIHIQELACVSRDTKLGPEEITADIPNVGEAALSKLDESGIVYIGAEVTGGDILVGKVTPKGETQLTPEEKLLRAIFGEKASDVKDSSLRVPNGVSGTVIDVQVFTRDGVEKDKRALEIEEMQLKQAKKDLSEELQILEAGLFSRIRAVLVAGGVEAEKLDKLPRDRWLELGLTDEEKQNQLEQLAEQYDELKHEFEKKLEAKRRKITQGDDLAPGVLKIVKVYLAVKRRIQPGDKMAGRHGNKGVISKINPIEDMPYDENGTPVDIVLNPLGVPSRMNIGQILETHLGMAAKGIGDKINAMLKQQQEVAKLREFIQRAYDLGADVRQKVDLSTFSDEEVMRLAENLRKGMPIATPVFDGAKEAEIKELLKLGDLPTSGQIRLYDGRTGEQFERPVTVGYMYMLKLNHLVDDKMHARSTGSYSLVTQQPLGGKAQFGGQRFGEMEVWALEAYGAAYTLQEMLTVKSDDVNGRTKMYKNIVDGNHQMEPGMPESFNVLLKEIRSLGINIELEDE
Chain of E. coli RNA polymerase (P0A7Z4 whole entry partner): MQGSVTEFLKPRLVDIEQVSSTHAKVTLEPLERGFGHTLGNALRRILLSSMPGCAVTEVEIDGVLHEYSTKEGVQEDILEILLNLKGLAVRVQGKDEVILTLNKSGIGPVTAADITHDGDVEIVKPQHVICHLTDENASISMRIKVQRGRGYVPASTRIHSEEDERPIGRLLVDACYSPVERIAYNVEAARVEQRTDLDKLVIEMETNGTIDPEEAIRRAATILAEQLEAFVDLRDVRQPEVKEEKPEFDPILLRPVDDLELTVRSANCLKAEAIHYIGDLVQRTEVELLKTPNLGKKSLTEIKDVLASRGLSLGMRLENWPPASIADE
Chain of E. coli RNA polymerase (P00579 whole entry partner): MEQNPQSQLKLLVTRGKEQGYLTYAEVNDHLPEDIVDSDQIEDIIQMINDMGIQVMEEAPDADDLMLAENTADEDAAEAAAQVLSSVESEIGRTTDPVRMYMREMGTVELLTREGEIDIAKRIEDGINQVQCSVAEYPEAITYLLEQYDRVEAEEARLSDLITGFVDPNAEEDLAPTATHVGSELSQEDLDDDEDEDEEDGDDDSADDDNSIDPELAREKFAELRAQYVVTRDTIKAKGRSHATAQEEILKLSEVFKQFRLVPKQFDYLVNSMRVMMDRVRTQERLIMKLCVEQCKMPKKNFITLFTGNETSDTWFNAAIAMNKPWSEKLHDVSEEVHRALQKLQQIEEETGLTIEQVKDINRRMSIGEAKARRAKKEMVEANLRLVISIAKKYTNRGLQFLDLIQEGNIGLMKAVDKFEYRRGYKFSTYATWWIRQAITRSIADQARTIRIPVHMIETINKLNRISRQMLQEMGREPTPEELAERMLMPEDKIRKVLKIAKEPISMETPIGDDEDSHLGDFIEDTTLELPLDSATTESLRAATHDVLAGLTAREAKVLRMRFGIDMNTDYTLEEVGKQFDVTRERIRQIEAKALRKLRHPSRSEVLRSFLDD
Protocol: In a typical experiment, the course of transcription of calf thymus DNA by E. coli RNA polymerase was monitored in the presence and absence of the redox system 3. The enzyme aliquot after admixing with 3 was incubated for 15 minutes and then dialyzed overnight. A general transcription assay was then carried out in a medium, which contained ^3H UTP in addition to other nucleotides. The amount of radioactive UTP (uridine triphaspate) incorporated in the transcribed RNA was monitored by scintillation counter and the count, when compared to that obtained on using native enzyme gave the percentage loss of activity.
A mixture containing 0.8 μM solution of 3 (5 μL from 8 μM stock in methanol) and 0.4 μM of E. coli RNA polymerase (5 μl from 4 μM stock) in 1×transcription buffer ^a (5 μL) and 35 μL of milliQ water was incubated for 15 min, and dialysed ^b overnight, 4×Transcription assay mixture ^c (10 μL) was diluted with 10 μL of milliQ water and admixed with 20 μL of treated and dialyzed enzyme. The mixture was incubated for 20 minutes and spotted on to a DE81 filter paper strip ^d, which was pre-coated with EDTA to arrest further transcription. The filter paper strips were allowed to air dry for three hours, washed successively with 5% Na2HPO4 solution (3×200 mL, 10 min. each), distilled water (2×200 mL, 5 min. each) and then with ethanol (2×75 mL). […]

[1] = Stability at normal conditions; format: physicochemical

With COC(=O)C(Cc1cnc[nH]1)n1sc2ccccc2c1=O [compound 3, benziso-N(L-histidine methylester)-thiazolone] the “activity compared to the native enzyme” value (E. coli RNA polymerase) was 53%, the inhibition of activity (E. coli RNA polymerase) was 47% and the stability [1] was “stable at normal conditions”.
